Holding throughout (assay type): physicochemical
Series [1] can be described thus: Thermodynamic aqueous solubility. On the procedure:
Thermodynamic Aqueous Solubility
The suspension was equilibrated at 25° C. for 24 hours then the pH was measured. The suspension was then filtered through a glass fibre C filter into a 96 well plate. […] Quantitation was by HPLC with reference to a standard solution of approximately 0.25 mg·ml^−1 in DMSO. Different volumes of the standard, diluted and undiluted sample solutions were injected.
Analysis was performed on an Agilent HP1100 series system equipped with a diode array detector and using ChemStation software vB.02.01-SR1.

Series [2] can be described thus: Thermal analysis by DSC and TGA. The settings on record: 10° C./min; for temperature of mass loss(es) on heating: TGA, Form 1: two distinct mass losses (FIG. 13), free base: a mass loss, probably water (FIG. 14). Here is the method: Differential Scanning Calorimetry (DSC)
DSC data were collected on a Mettler DSC 823e equipped with a 34 position auto-sampler. The instrument was calibrated for energy and temperature using certified indium. Typically 0.5-3 mg of each sample, in a pin-holed aluminium pan, was heated at 10° C./min from 25° C. to 300° C. A nitrogen purge at 50 ml/min was maintained over the sample.
Thermogravimetric Analysis (TGA)
TGA data were collected on a Mettler TGA/SDTA 851e equipped with a 34 position auto-sampler. The instrument was temperature calibrated using certified indium. Typically 5-30 mg of each sample was loaded onto a pre-weighed aluminium crucible and was heated at 10° C./min from ambient temperature to 400° C. A nitrogen purge at 50 ml/min was maintained over the sample.
Thermal analysis of Form 2 crystalline polymorph (a sample obtained using the method in Example 6) by DSC and TGA was undertaken using the method describe in General Methods. […]
On the technique in general: In DSC, transitions show as peaks or steps in heat flow.

Series [3] is described as follows: Solid state 13C NMR, environmental dependence of ketone:hydrate ratio. The settings on record: as prepared 67:33. Here is the method: The analysis was carried out using a Varian VNMRS instrument operating at 100.56 MHz for ^13C (399.88 MHz for 1H) and 376.24 MHz for ^19F with a 4 mm (rotor o.d.) magic-angle spinning probe. Carbon-13 spectra were recorded from the sample using a crosspolarization magic-angle spinning (CPMAS) technique without and with dipolar dephasing (interrupted decoupling). Appropriate acquisition conditions were established using a set of short trial measurements: recycle 5 s, contact time 5 ms. A sample spin-rate of 10.0 kHz was used along with two-pulse phase-modulated (TPPM) 1H decoupling (at a radiofrequency field approximately equivalent to 75 kHz). The sample was run as-received and at ambient probe temperature (˜30° C. at this spin rate). Spectra are referenced with respect to neat tetramethylsilane (by setting the high-frequency line from adamantane to 38.5 ppm). The ^19F spectrum was obtained by direct excitation following a 3.6 μs 90° pulse, with a 60 s relaxation delay, at spin rate of 14 kHz and with no 1H decoupling. The spectrum is referenced relative to CFCI3.
The analysis was carried out using a Varian VNMRS instrument operating at 100.56 MHz for ^13C (399.88 MHz for 1H) and a 6 mm (rotor o.d.) magic-angle spinning probe. Carbon-13 spectra were recorded from the sample using a cross-polarization magic-angle spinning (CPMAS) technique. […]
The ^13C solid state NMR spectrum of a sample of Form 2 crystalline polymorph produced using the method of Example 5 is illustrated in FIG. 5. Based on the integration of the 208 ppm (ketone) and 102 ppm (hydrate) signals, the ketone:hydrate ratio was determined to be 67:33.
The ^13C solid state NMR spectrum illustrated in FIG. 6 was recorded after the sample had been stored at a relative humidity of <2% for one week. […] The ^13C solid state NMR spectrum shown in FIG. 7 was recorded after the sample had been stored at 75% RH for one week. […] The ^13C solid state NMR spectrum shown in FIG. 8 was recorded at 80° C. and gives a ketone content of 68%.

Series [4] is described as follows: Gravimetric vapour sorption (GVS). The conditions noted are these: 25° C. On the procedure:
Gravimetric Vapour Sorption (GVS)
Sorption isotherms were obtained using a SMS DVS Intrinsic moisture sorption analyser, controlled by DVS Intrinsic Control software v1.0.0.30. The sample temperature was maintained at 25° C. by the instrument controls. The humidity was controlled by mixing streams of dry and wet nitrogen, with a total flow rate of 200 ml/min The relative humidity was measured by a calibrated Rotronic probe (dynamic range of 1.0-100% RH), located near the sample. The weight change, (mass relaxation) of the sample as a function of % RH was constantly monitored by the microbalance (accuracy ±0.005 mg).
Typically 5-20 mg of sample was placed in a tared mesh stainless steel basket under ambient conditions. The sample was loaded and unloaded at 40% RH and 25° C. (typical room conditions). A moisture sorption isotherm was performed as outlined below (2 scans giving 1 complete cycle). The standard isotherm was performed at 25° C. at 10% RH intervals over a 0-90% RH range. Data analysis was undertaken in Microsoft Excel using DVS Analysis Suite v6.0.0.7.
The sample was recovered after completion of the isotherm and re-analysed by XRPD.
Gravimetric vapour sorption analysis of Form 2 crystalline polymorph (a sample obtained using the method in Example 6) was undertaken using the method described in General Methods.

Converted amounts (≈) assume the structure as drawn.

Here are results for three compounds from US9650388B2, “Form 2 crystalline polymorph of a salt of N-[1-6-(ethynyl-3-oxo-hexahydro-furo[3,2-B]pyrrole-4-carbonyl)-3-methyl-butyl]-4-[5-fluoro-2-(4-methyl-piperazinyl) thiazol-4-yl]-benzamide useful as cysteine protease inhibitor” (MEDIVIR AB, priority 2013, dated 2017).

For orientation: solubility means the dissolved amount per volume that the medium holds. A low value points to little dissolved substance. Consider `C#C[C@@H]1CN(C(=O)[C@H](CC(C)C)NC(=O)c2ccc(-c3nc(N4CCN(C)CC4)sc3F)cc2)[C@@H]2C(=O)CO[C@H]12` [Compound I free base, N-[1-6-(ethynyl-3-oxo-hexahydro-furo[3,2-b]pyrrole-4-carbonyl)-3-methyl-butyl]-4-[5-fluoro-2-(4-methyl-piperazin-1-yl)thiazol-4-yl]-benzamide], for which the solubility at 24 h in series [1] (pH 5.8, thermodynamic from solid, suspension in water equilibrated at 25° C. for 24 hours, filtered, HPLC, pH of each suspension printed in same cell) was determined as 300 µg/mL (≈ 528 µM). The “pH measured after equilibration of the solubility suspension” value in series [1] (water, 25° C., 24 hours) is reported as 5.8. Moreover, the “temperature of mass loss(es) on heating” value in series [2] is “below 110 °C”.

With `C#CC1CN(C(=O)C(CC(C)C)NC(=O)c2ccc(-c3nc(N4CCN(C)CC4)sc3F)cc2)C2C(=O)COC12.Cl` (stereo not shown) [Form 1 crystalline polymorph, N-[1-6-(ethynyl-3-oxo-hexahydro-furo[3,2-b]pyrrole-4-carbonyl)-3-methyl-butyl]-4-[5-fluoro-2-(4-methyl-piperazin-1-yl)thiazol-4-yl]-benzamide monohydrochloride], the “temperature of mass loss(es) on heating” value in series [2] is “below 160 °C”.

On to “N-[1-6-(ethynyl-3-oxo-hexahydro-furo[3,2-b]pyrrole-4-carbonyl)-3-methyl-butyl]-4-[5-fluoro-2-(4-methyl-piperazin-1-yl)thiazol-4-yl]-benzamide monohydrochloride and N-[1-6-(ethynyl-3-oxo-hexahydro-furo[3,2-b]pyrrole-4-carbonyl)-3-methyl-butyl]-4-[5-fluoro-2-(4-methyl-piperazin-1-yl)thiazol-4-yl]-benzamide hydrate monohydrochloride [Form 2 crystalline polymorph]”, for which the “ketone share of ketone/hydrate signal intensity” value in series [3] (after storage at 75% RH for one week (FIG. 7)) and in series [3] (after storage at relative humidity <2% for one week (FIG. 6)) was 67% in each case. In addition, the ketone content in series [3] (spectrum recorded at 80° C. (FIG. 8)) was 68%. In addition, the “temperature at which degradation begins” value in series [2] (DSC/TGA, nitrogen, small mass loss until this temperature (FIG. 12)) was 160 °C. Besides, the “reversibility of water uptake” value in series [4] (0-90% RH range) is reported as “reversible”. In series [4] (over the 0-90% RH range), this compound yielded a water uptake of approximately 2.2%.
